Measured values reported in publication PMC4728427, “Mechanism of allosteric activation of TMEM16A/ANO1 channels by a commonly used chloride channel blocker” (British Journal of Pharmacology, 2016).

Molecular target: T1, Mouse TMEM16A (Mus musculus, UniProt Q8BHY3)
T1 construct: expressed in transfected cells; host or cells: HEK-293T
T1 sequence (Q8BHY3 1-960): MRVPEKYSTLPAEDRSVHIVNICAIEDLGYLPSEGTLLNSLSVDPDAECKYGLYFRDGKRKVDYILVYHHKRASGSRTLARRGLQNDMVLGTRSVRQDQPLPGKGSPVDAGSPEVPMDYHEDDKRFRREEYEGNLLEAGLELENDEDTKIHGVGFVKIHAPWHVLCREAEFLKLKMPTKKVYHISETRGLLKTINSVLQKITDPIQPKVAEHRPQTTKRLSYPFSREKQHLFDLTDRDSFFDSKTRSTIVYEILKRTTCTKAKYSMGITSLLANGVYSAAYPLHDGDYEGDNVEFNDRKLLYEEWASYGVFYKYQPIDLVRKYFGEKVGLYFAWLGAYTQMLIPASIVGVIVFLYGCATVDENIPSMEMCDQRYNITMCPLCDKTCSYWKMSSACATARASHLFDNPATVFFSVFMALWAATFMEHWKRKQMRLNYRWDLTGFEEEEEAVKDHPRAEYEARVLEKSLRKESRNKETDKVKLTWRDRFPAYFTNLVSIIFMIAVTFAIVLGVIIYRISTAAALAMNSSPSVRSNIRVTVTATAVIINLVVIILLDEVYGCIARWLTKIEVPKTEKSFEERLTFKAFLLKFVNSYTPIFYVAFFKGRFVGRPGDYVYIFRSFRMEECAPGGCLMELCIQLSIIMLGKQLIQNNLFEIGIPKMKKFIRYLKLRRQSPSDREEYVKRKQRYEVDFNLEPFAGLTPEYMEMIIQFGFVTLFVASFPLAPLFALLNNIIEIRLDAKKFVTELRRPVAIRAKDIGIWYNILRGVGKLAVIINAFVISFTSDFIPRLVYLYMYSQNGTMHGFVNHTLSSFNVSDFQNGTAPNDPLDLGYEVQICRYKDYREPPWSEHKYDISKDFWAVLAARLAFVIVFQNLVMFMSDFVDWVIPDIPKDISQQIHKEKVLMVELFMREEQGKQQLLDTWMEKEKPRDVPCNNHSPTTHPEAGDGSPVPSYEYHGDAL
Experiment: Whole-cell TMEM16A current in the absence of [Ca2+]i
Type: cell-based
Conditions: 3000 μM extracellular A9C
Experimental: Current versus V m relationships were constructed by measuring currents in response to 1 s V m steps (test pulses) from −100 to +100 mV in 40 mV increments (unless stated otherwise) after a 1 s V m step to +70 mV (pre‐pulse). Pulses were elicited every 2 s from a holding V m of 0 mV. Steady‐state currents were measured at the end of the test pulses. As detailed in the Results, in the presence of 300 nM [Ca^2+]i and extracellular A9C, the test‐pulse currents reached a peak within the first ~50 ms of the test pulse. These peak currents were also measured and plotted against the V m of the test pulse. Current density was obtained by dividing the current amplitude for the cell capacitance.
The gating of TMEM16A channels is modulated by changes in [Ca^2+]i and V m. To study the effect of A9C on the intrinsic V m‐dependence of the channel, extracellular A9C (3000 μM) was applied during whole‐cell patch‐clamp in the absence of [Ca^2+]i (Figure 9). The stimulation protocol was similar to that used in Figure 1. However, because TMEM16A current in the absence of [Ca^2+]i are evident at V m greater than ~100 mV (Xiao et al., 2011), test pulses were elicited up to a value of +140 mV. Consistent with previous studies (Xiao et al., 2011), TMEM16A current in the absence of [Ca^2+]i appeared almost instantaneously in response to strong depolarizations (Figure 9). […]

tail currents at negative Vm: no large increase
TMEM16A current density (+140 mV, control 13.0 ± 4.0): 7.3 ± 3.8 pA∙pF^−1
SMILES: O=C(O)c1c2ccccc2cc2ccccc12 [A9C, Anthracene‐9‐carboxylic acid]
